ChEMBL document CHEMBL1201862, “PubChem BioAssay data set” (2004)
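Test compounds were applied to cells in 96-well plates for 48 hours at 5 doses. GI50 is the concentration that inhibits growth by half.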 Active and inactive are the calls of the source. Cut-off read from the data, not from the text of the source: active = GI50 up to about 1.1 µM and inactive = higher.

Assays:
Assay in all cases: NCI-60 cell line screen, 48 h
786-0 = system: 786-0
A498 = system: A498
A549 = system: A549
ACHN = system: ACHN
CAKI-1 = system: CAKI-1
CCRF-CEM = system: CCRF-CEM
COLO 205 = system: COLO 205
DU-145 = system: DU-145
EKVX = system: EKVX
HCC 2998 = system: HCC 2998
HCT-116 = system: HCT-116
HL-60 = system: HL-60
HOP-62 = system: HOP-62
HOP-92 = system: HOP-92
HT-29 = system: HT-29
Hs-578T = system: Hs-578T
IGROV-1 = system: IGROV-1
K562 = system: K562
KM12 = system: KM12
LOX IMVI = system: LOX IMVI
M14 = system: M14
MCF7 = system: MCF7
MDA-MB-231 = system: MDA-MB-231
MDA-MB-435 = system: MDA-MB-435
MDA-N = system: MDA-N
MOLT-4 = system: MOLT-4
Malme-3M = system: Malme-3M
NCI-H226 = system: NCI-H226
NCI-H23 = system: NCI-H23
NCI-H460 = system: NCI-H460
NCI-H522 = system: NCI-H522
NCI/ADR-RES = system: NCI/ADR-RES
OVCAR-3 = system: OVCAR-3
OVCAR-4 = system: OVCAR-4
OVCAR-5 = system: OVCAR-5
OVCAR-8 = system: OVCAR-8
PC-3 = system: PC-3
RPMI-8226 = system: RPMI-8226
RXF 393 = system: RXF 393
SF-268 = system: SF-268
SF-295 = system: SF-295
SF-539 = system: SF-539
SK-MEL-28 = system: SK-MEL-28
SK-MEL-2 = system: SK-MEL-2
SK-MEL-5 = system: SK-MEL-5
SK-OV-3 = system: SK-OV-3
SN12C = system: SN12C
SNB-19 = system: SNB-19
SNB-75 = system: SNB-75
SR = system: SR
SW-620 = system: SW-620
T47D = system: T47D
TK-10 = system: TK-10
U-251 = system: U-251
UACC-257 = system: UACC-257
UACC-62 = system: UACC-62
UO-31 = system: UO-31
HCT-15 = system: HCT-15

Measured: GI50

CCOC(=O)C(=CNC(=S)Nc1c(CC)cccc1CC)C(=O)OCC
inactive: 786-0 > 100 µM | A498 > 100 µM | A549 > 100 µM | ACHN > 100 µM | CAKI-1 > 100 µM | CCRF-CEM > 100 µM | COLO 205 > 100 µM | DU-145 > 100 µM | EKVX > 100 µM | HCC 2998 > 100 µM | HCT-116 > 100 µM | HL-60 > 100 µM | HOP-62 > 100 µM | HOP-92 94.4 µM | HT-29 > 100 µM | Hs-578T 80.7 µM | IGROV-1 > 100 µM | K562 > 100 µM | KM12 > 100 µM | LOX IMVI > 100 µM | M14 > 100 µM | MCF7 > 100 µM | MDA-MB-231 > 100 µM | MDA-MB-435 > 100 µM | MDA-N > 100 µM | MOLT-4 > 100 µM | Malme-3M > 100 µM | NCI-H226 > 100 µM | NCI-H23 > 100 µM | NCI-H460 > 100 µM | NCI-H522 > 100 µM | NCI/ADR-RES > 100 µM | OVCAR-3 > 100 µM | OVCAR-4 > 100 µM | OVCAR-5 > 100 µM | OVCAR-8 > 100 µM | PC-3 > 100 µM | RPMI-8226 > 100 µM | RXF 393 > 100 µM | SF-268 > 100 µM | SF-295 > 100 µM | SF-539 > 100 µM | SK-MEL-28 > 100 µM | SK-MEL-2 > 100 µM | SK-MEL-5 > 100 µM | SK-OV-3 > 100 µM | SN12C > 100 µM | SNB-19 > 100 µM | SNB-75 12.8 µM | SR > 100 µM | SW-620 > 100 µM | T47D > 100 µM | TK-10 > 100 µM | U-251 > 100 µM | UACC-257 > 100 µM | UACC-62 > 100 µM | UO-31 > 100 µM

COc1ccc(C=C2C(=O)NC(=S)NC2=O)c2ccccc12
inactive: 786-0 47 µM | ACHN 97.5 µM | CAKI-1 50.2 µM | CCRF-CEM 32.4 µM | DU-145 23.8 µM | EKVX 82 µM | HCC 2998 32.6 µM | HCT-116 40 µM | HL-60 24.3 µM | HOP-62 30.4 µM | HOP-92 > 100 µM | HT-29 28.2 µM | Hs-578T 28.2 µM | IGROV-1 38.3 µM | K562 43.4 µM | KM12 44.3 µM | LOX IMVI 34.4 µM | M14 45 µM | MCF7 22.5 µM | MDA-MB-231 39.9 µM | MDA-MB-435 27 µM | MDA-N 18.1 µM | MOLT-4 83.2 µM | NCI-H23 32.8 µM | NCI-H460 12 µM | NCI-H522 47.2 µM | NCI/ADR-RES 26.7 µM | OVCAR-3 24 µM | OVCAR-4 > 100 µM | OVCAR-5 5.13 µM | OVCAR-8 33.4 µM | PC-3 26.2 µM | RPMI-8226 34.5 µM | RXF 393 20.7 µM | SF-268 34.5 µM | SF-295 31.3 µM | SF-539 22 µM | SK-MEL-28 57.8 µM | SK-MEL-2 21.2 µM | SK-MEL-5 29.1 µM | SK-OV-3 37.1 µM | SR 42.7 µM | SW-620 33.4 µM | T47D 32.1 µM | TK-10 7.6 µM | U-251 27.6 µM | UACC-257 14.4 µM | UO-31 > 100 µM
active: A498 0.224 µM | NCI-H226 0.179 µM
33.1 µM: HCT-15
